The source of these data is patent US20260327655A1, “SMALL-MOLECULE REGULATED ALTERNATIVE SPLICING” (priority 2023, published 2026).

One assay concerns RS4-1 and variants. Nature of the assay: Luciferase induction assay, RS4-1 and variants in HEK-293T cells. The assay is classed as cell-based, human. Conditions: 18 hours, FIGS. 15A, 15B. The procedure: HEK-293T cells were cultured in DMEM+10% FBS, collected after trypsinization, and dispensed into 96-well plates (cell culture-treated). Each well of the plate was seeded with 1.0×10^5 cells in 100 μL culture medium. After a 1-hour incubation in the tissue culture incubator (5% CO2, 37° C.), plasmid DNA was complexed with a transfection reagent, such as Lipofectamine 3000, and added to respective wells on the plate. Each well received 100 ng of plasmid DNA complexed with 0.15 μL Lipofectamine 3000. The plasmids utilized in the experiment encoded a CMV promoter upstream of the RS4-1 construct and variants that controlled the expression of a Firefly Luciferase gene followed by a SV40 polyadenylation signal. After a 10-minute incubation at room temperature, either DMSO vehicle or 24 A at specified doses was added to the wells of the plate. Plates were then incubated for 18 hours in a tissue culture incubator. Endpoint analysis was performed by adding 100 uL of a Luciferase substrate, such as Steady-Luc Firefly Luciferase substrate, to each well of the assay plate. The liquid contents of each was transferred to a 96-well plate, mixed again for 2 min on an orbital shaker, and incubated at room temperature for 5 min. Finally, the luminescent signal from each well was measured with a plate reader. […]

Assay [1] has as its system RS3-13 minigene (Firefly Luciferase), HEK-293T cells. Briefly: Luciferase induction assay, RS3-13 with splice modulator compounds in HEK-293T cells. Conditions: Homo sapiens, 18 hours, n of 3, read-out: Mean fold-induction of luciferase (relative to vehicle control). The assay is classed as cell-based.
The subject of another assay is RS1-10, Flp-In-293 cells. Nature of the assay: Comparison of RS1-10 Flp-In cell line with constitutive Flp-In cell line. Conditions: Homo sapiens, 7 nM, 18 hours, FIG. 9G, read-out: luciferase signal relative to constitutively expressing cell line as 100%. Format: cell-based. The procedure: Single-copy insertion of RSI-10 sequence and subsequent cell-line generation was performed in Flp-In-293 cells according to manufacturer's protocols. The RS1-10 sequence fused to a Firefly Luciferase gene was cloned into a Flp-In compatible pcDNA5/FRT expression vector with a CMV promoter and BGH polyadenylation signal. The resulting Flp-In cell line carried a single-copy expression cassette of RS1-10 integrated into the genome. Similarly, a cell line constitutively expressing Firefly Luciferase from a single-copy genomic insertion was generated in Flp-In-293 cells. For the constitutive cell line, only the Firefly Luciferase gene was cloned into the pcDNA5/FRT expression vector that was used to generate the single-copy genomic insertion. Both cell lines were cultured in DMEM+10% FBS, collected after trypsinization, and then dispensed into 96-well plates (cell culture-treated). Each well of the plate was seeded with 1.0×10^5 cells in 100 μL culture medium. Subsequently, either DMSO vehicle or 24 A at specified doses was added to the wells of the plate containing the RS1-10 Flp-In 293 cells. Triplicate wells were used for each condition tested in the experiment. Plates were then incubated for 18 hours in a tissue culture incubator (5% CO2, 37 degrees C.). […]

In assay [2] the test system is RS1-10 minigene (Firefly Luciferase), HEK-293T cells. Briefly: Luciferase induction assay, RS1-10 with splice modulator compounds in HEK-293T cells. The assay is classed as cell-based. Conditions: Homo sapiens, 18 hours, n of 3, read-out: Mean fold-induction of luciferase (relative to vehicle control).

With `CCN1CC(c2ccc(-c3ccc(-c4ccc5nn(C)cc5c4)cc3O)nn2)C1` [Compound 24A, 2-[6-(1-ethylazetidin-3-yl)pyridazin-3-yl]-5-(2-methyl-2H-indazol-5-yl)phenol], the fold-induction of luciferase result with RS4-1 and variants is reported as “increasing fold-induction of luciferase with increasing concentrations”. Further, the fold induction at 0.1 µM in assay [1] (RS3-13, 100 nM) stood at 6.27; in assay [2] (RS1-10, 100 nM), 74.1. The fold induction at 1 µM in assay [1] (RS3-13, 1,000 nM) is 42.4; in assay [2] (RS1-10, 1,000 nM), 84. Also, the activity at 0.007 µM with RS1-10, Flp-In-293 cells is at least 60%.
